These results are taken from US20090018134A1, “Compounds - 945” (AstraZeneca AB, priority 2007, published 2009).

SMILES strings stand for the structures.

The target of one test is T1, mTOR (Homo sapiens, UniProt P42345).
T1 construct: FLAG; made in house
T1 sequence (P42345 1362-2549): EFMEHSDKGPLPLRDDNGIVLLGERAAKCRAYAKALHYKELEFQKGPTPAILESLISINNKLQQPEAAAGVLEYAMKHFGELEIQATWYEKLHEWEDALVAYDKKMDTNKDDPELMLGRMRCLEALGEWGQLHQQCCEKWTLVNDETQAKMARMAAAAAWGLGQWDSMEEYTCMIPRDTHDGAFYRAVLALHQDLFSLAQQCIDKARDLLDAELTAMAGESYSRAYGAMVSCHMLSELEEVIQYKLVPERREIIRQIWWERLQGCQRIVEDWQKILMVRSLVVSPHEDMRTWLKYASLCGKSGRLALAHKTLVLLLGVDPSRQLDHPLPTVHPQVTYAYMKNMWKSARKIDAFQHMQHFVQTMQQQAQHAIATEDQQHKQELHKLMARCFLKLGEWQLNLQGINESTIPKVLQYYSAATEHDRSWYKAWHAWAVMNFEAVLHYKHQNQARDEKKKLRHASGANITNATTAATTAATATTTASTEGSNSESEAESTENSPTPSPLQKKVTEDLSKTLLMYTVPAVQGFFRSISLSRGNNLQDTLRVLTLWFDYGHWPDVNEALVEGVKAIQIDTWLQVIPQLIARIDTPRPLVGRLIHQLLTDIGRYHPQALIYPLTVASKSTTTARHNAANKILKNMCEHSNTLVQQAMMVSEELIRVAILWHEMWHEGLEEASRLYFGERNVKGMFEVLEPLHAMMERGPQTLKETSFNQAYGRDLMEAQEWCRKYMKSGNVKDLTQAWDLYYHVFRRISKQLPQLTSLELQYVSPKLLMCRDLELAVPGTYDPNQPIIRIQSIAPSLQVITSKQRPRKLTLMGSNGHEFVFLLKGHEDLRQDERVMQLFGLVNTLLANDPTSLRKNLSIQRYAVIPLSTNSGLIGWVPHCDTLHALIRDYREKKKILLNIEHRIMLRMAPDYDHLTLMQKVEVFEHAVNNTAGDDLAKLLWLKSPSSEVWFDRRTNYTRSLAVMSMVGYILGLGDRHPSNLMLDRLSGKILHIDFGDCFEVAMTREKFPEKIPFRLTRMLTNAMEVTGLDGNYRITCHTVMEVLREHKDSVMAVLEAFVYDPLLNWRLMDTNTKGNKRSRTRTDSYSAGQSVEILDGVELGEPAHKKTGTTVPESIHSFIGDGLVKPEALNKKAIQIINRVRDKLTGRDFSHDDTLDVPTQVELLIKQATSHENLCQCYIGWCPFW
As to the kind of experiment: In Vitro mTOR Kinase Assay (Echo), Test (a)(ii). The conditions noted are these: read-out: mTOR Kinase Assay (Echo). Format: biochemical. In short, it runs like this: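 Inhibition expressed as IC50 from an AlphaScreen read-out: phospho-T389 p70 S6K antibody plus streptavidin donor/protein A acceptor beads, left overnight in the dark. The kinase reaction ran 2 h at room temperature, then was stopped with EDTA. Enzyme: FLAG-purified mTOR 1362-2549 fragment from stable HEK293 cells.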
For the molecule `CCNC(=O)Nc1ccc(-c2nc(N3CCOC[C@@H]3C)cc(C3(S(=O)(=O)C4CCCC4)CC3)n2)cc1` [Example 9e], the IC50 is 1.87 nM.
The same measure, in the same setting: then `C[C@H]1COCCN1c1cc(C2(S(=O)(=O)C3CC3)CC2)nc(-c2ccc(NC(=O)Nc3ccc(C(F)(F)F)cc3)cc2)n1` [Example 3j, 1-[4-[4-(1-cyclopropylsulfonylcyclopropyl)-6-[(3S)-3-methylmorpholin-4-yl]pyrimidin-2-yl]phenyl]-3-[4-(trifluoromethyl)phenyl]urea], with 4.22 nM; and `CC(C)CNC(=O)Nc1ccc(-c2nc(N3CCOC[C@@H]3C)cc(C3(S(C)(=O)=O)CCCC3)n2)cc1` [Example 4i, 1-[4-[4-[(3S)-3-methylmorpholin-4-yl]-6-(1-methylsulfonylcyclopentyl)pyrimidin-2-yl]phenyl]-3-(2-methylpropyl)urea], with 11.5 nM.
Still for that read-out and setting: then `CCNC(=O)Nc1ccc(-c2nc(N3CCOC[C@@H]3C)cc(C3(S(=O)(=O)C(C)C)CC3)n2)cc1` [Example 7a, 1-ethyl-3-[4-[4-[(3S)-3-methylmorpholin-4-yl]-6-(1-propan-2-ylsulfonylcyclopropyl)pyrimidin-2-yl]phenyl]urea], with 2.31 nM; and `CC(CO)NC(=O)Nc1ccc(-c2nc(N3CCOC[C@@H]3C)cc(C3(S(C)(=O)=O)CC3)n2)cc1` (stereo partly drawn) [Example 2n, 3-(1-hydroxypropan-2-yl)-1-[4-[4-[(3S)-3-methylmorpholin-4-yl]-6-(1-methylsulfonylcyclopropyl)pyrimidin-2-yl]phenyl]urea], with 8.44 nM.
The same measure, in the same setting: then `CCCNC(=O)Nc1ccc(-c2nc(N3CCOC[C@@H]3C)cc(C3(S(=O)(=O)C(C)C)CC3)n2)cc1` [Example 7h, 3-[4-[4-[(3S)-3-methylmorpholin-4-yl]-6-(1-propan-2-ylsulfonylcyclopropyl)pyrimidin-2-yl]phenyl]-1-propyl-urea], with 11.6 nM; and `C[C@H]1COCCN1c1cc(C2(S(C)(=O)=O)CC2)nc(-c2ccc(NC(=O)NCC(O)C(F)(F)F)cc2)n1` (stereo partly drawn) [Example 2z, 1-[4-[4-[(3S)-3-methylmorpholin-4-yl]-6-(1-methylsulfonylcyclopropyl)pyrimidin-2-yl]phenyl]-3-(3,3,3-trifluoro-2-hydroxypropyl)urea], with 18.1 nM.

Still in this test, the particulars now being: table of enzyme assay Test (a)(ii); read-out: Test (a)(ii) IC50.
In the case of `Cc1csc(S(=O)(=O)C2(c3cc(N4CCOC[C@@H]4C)nc(-c4ccc(NC(=O)NC(C)(C)CO)cc4)n3)CCC2)n1` [Example 98a, 3-(1-hydroxy-2-methylpropan-2-yl)-1-[4-[4-[(3S)-3-methylmorpholin-4-yl]-6-[1-[(4-methyl-1,3-thiazol-2-yl)sulfonyl]cyclobutyl]pyrimidin-2-yl]phenyl]urea], the IC50 was found to be 11 nM.
On the same count and under the same terms, then `CCCNC(=O)Nc1ccc(-c2nc(N3CCOC[C@@H]3C)cc(C3(S(=O)(=O)c4cc(F)cc(F)c4)CC3)n2)cc1` [Example 19h, 1-[4-[4-[1-(3,5-difluorophenyl)sulfonylcyclopro-pyl]-6-[(3S)-3-methylmorpholin-4-yl]pyrimidin-2-yl]phenyl]-3-propylurea], with 2.46 nM.
The same measure, in the same setting: then `CCNC(=O)Nc1ccc(-c2nc(N3CCOC[C@@H]3C)cc(C3(S(=O)(=O)C(C)(C)C)CC3)n2)cc1` [Example 18e, 1-[4-[4-(1-tert-butylsulfonylcyclopropyl)-6-[(3S)-3-methylmorpholin-4-yl]pyrimidin-2-yl]phenyl]-3-ethylurea], with 0.654 nM; and `C[C@H]1COCCN1c1cc(C2(S(C)(=O)=O)CC2)nc(-c2ccc(NC(N)=O)cc2)n1` [Example 29, [4-[4-[(3S)-3-Methylmorpholin-4-yl]-6-(1-methylsulfonylcyclopropyl)pyrimidin-2-yl]phenyl]urea], with 4.2 nM.
On the same count and under the same terms, then `CC[C@H]1COCCN1c1cc(C2(S(=O)(=O)c3ccccc3)CC2)nc(-c2ccc(NC(=O)Nc3cnn(C)c3)cc2)n1` [Example 74e, 1-[4-[4-[1-(benzenesulfonyl)cyclopropyl]-6-[(3S)-3-ethylmorpholin-4-yl]pyrimidin-2-yl]phenyl]-3-(1-methylpyrazol-4-yl)urea], with 5.06 nM; and `CCCNC(=S)Nc1ccc(-c2nc(N3CCOC[C@@H]3C)cc(C3(S(=O)(=O)CCCO)CCC3)n2)cc1` [Example 99h, 3-[4-[4-[1-(3-hydroxypropylsulfonyl)cyclobutyl]-6-[(3S)-3-methylmorpholin-4-yl]pyrimidin-2-yl]phenyl]-1-propylthiourea], with 78.2 nM; and `CCNC(=O)Nc1ccc(-c2nc(N3CCOC[C@@H]3C)cc(C3(S(=O)(=O)c4cc(F)ccc4F)CC3)n2)cc1` [Example 60e, 3-[4-[4-[1-(2,5-difluorophenyl)sulfonylcyclopropyl]-6-[(3S)-3-methylmorpholin-4-yl]pyrimidin-2-yl]phenyl]-1-ethylurea], with 11.6 nM.
In the case of `CCNC(=O)Nc1ccc(-c2nc(N3CCOC[C@@H]3C)cc(C3(S(=O)(=O)c4ccc(F)c(F)c4)CC3)n2)cc1` [Example 64h, 3-[4-[4-[1-(3,4-difluorophenyl)sulfonylcyclopro-pyl]-6-[(3S)-3-methylmorpholin-4-yl]pyrimidin-2-yl]phenyl]-1-ethylurea], the IC50 was found to be 1.48 nM.
Same read-out and setting: then `C[C@H]1COCCN1c1cc(C2(S(=O)(=O)c3ccc(Cl)cc3)CC2)nc(-c2ccc(NC(=O)NCCCO)cc2)n1` [Example 27l, 1-[4-[4-[1-(4-chlorophenyl)sulfonylcyclopropyl]-6-[(3S)-3-methylmorpholin-4-yl]pyrimidin-2-yl]phenyl]-3-(3-hydroxypropyl)urea], with 1.12 nM; and `CCNC(=O)Nc1ccc(-c2nc(N3CCOC[C@@H]3C)cc(C3(S(=O)(=O)CCCO)CC3)n2)cc1` [Example 31e, 1-ethyl-3-[4-[4-[1-(3-hydroxypropylsulfonyl)cyclopropyl]-6-[(3S)-3-methylmorpholin-4-yl]pyrimidin-2-yl]phenyl]urea], with 1.07 nM; and `CN(C)C(=O)C1(c2cc(N3CCOCC3)nc(-c3ccc(NC(=O)NC4CC4)cc3)n2)CC1` [Example 33, 1-[2-[4-(Cyclopropylcarbamoylamino)phenyl]-6-morpholin-4-ylpyrimidin-4-yl]-N,N-dimethylcyclopropane-1-carboxamide], with 9.29 nM.
Same read-out and setting: then `C[C@H]1COCCN1c1cc(C2(S(=O)(=O)c3ccccn3)CCC2)nc(-c2ccc(NC(=O)NC3CC3)cc2)n1` [Example 36af, 3-cyclopropyl-1-[4-[4-[(3S)-3-methylmorpholin-4-yl]-6-(1-pyridin-2-ylsulfonylcyclobutyl)pyrimidin-2-yl]phenyl]urea], with 2.75 nM; and `CCNC(=O)Nc1ccc(-c2nc(N3CCOC[C@@H]3C)cc(C3(S(=O)(=O)c4sc(C)nc4C)CC3)n2)cc1` [Example 78b, 3-[4-[4-[1-[(2,4-dimethyl-1,3-thiazol-5-yl)sulfonyl]cyclopropyl]-6-[(3S)-3-methylmorpholin-4-yl]pyrimidin-2-yl]phenyl]-1-ethylurea], with 33.3 nM; and `Cc1nn(C(F)F)c(C)c1S(=O)(=O)C1(c2cc(N3CCOC[C@@H]3C)nc(-c3ccc(NC(=O)NCC(F)F)cc3)n2)CC1` [Example 75d, 3-(2,2-difluoroethyl)-1-[4-[4-[1-[1-(difluoromethyl)-3,5-dimethylpyrazol-4-yl]sulfonylcyclopropyl]-6-[(3S)-3-methylmorpholin-4-yl]pyrimidin-2-yl]phenyl]urea], with 39.9 nM.
